Values after ≈ are worked out from the molar mass of the structure shown. Square brackets hold non-standard residues; d marks the D form. Peptide text beside a SMILES is read from it. * marks the point of attachment. Dolaproine = CO[C@@H]([C@@H]1CCCN1)[C@@H](C)C(=O)O; Dil = CC[C@H](C)[C@H](NC)[C@@H](CC(=O)O)OC; Doe = c1ccc(C[C@H](N*)c2nccs2)cc1; Aib = CC(C)(N)C(=O)O
Tests used:
[1] = system: H661 lung cancer cells; assay: Microtubule structure by anti-tubulin immunofluorescence; type: cell-based, human; settings: 48 hours, ADC or mAb 0-4 μg/mL, free 0101 0.1-10 nM, FIG. 22
Method: The cells were then fixed in 3% paraformaldehyde, washed with PBS, permeabilized with 0.5% Triton-X® (Sigma Chemical) in PBS, washed with PBS, and incubated with blocking buffer (5% normal goat serum and 0.2% Tween-20 in PBS). Cells were incubated with the primary anti-α-tubulin antibody (Sigma NoT9026, clone DM1A) in blocking buffer for 1 hour at room temperature. Afterwards, the cells were washed with PBS and incubated for 30 minutes with an Alexa Fluor® 488-conjugated secondary antibody (Invitrogen Corp) and 4′,6-diamidino-2-phenylindole (DAPI) to stain the DNA. The cells were visualized on a Zeiss LSM 510 Meta confocal microscope.

[2] = system: H661 cells; assay: In vitro cytotoxicity, MTS, 4 days; type: cell-based; settings: Homo sapiens, NCI-H661, 96 h
Method: (§1) The cytotoxicity of the antibody-drug conjugate hu24-vc0101 was evaluated on cell lines that express the target PTK7. The engineered HEK293T-PTK7 over-expressing cell line was plated into a clear flat-bottom tissue culture plate (BD Falcon) at 500 cells per 180 μL of cell culture media per well. Human cancer cell lines were also tested in this assay and plated at a density that was previously determined to be optimal for each cell line according to their rate of growth (H661 1500 cells/well and H446 9600 cells/well in 150 μl). The cells were incubated overnight at 37° C. in a 5% CO2 incubator. On the following day, the hu24-vc0101 ADC and the 8.84 Ab-vc0101 ADC (negative control) were added to the cells on a 10 point concentration curve in triplicate samples starting with 3 or 10 μg/mL with 1:3 dilutions in cell culture media. The plate was incubated in a 37° C., 5% CO2 incubator for 4 days. The MTS assay (Promega CellTiter 96 Aqueous Non-Radioactive Cell Proliferation Assay) was used according to the supplier's instructions. 30 μL (H446, H661) or 40 μL (HEK293T-PTK7) of the combined MTS reagent was added to each well, and the plate was incubated in a 37° C., 5% CO2 incubator for 2 hours. The OD was determined at 490 nm with a 96-well plate reader. The average reading from wells with media alone was subtracted from the readings of wells with cells to control for background OD.

[3] = system: H446 cells; assay: In vitro cytotoxicity, MTS, 4 days; type: cell-based; settings: Homo sapiens, NCI-H446, 96 h
Method: as §1

CC[C@H](C)[C@@H]([C@@H](CC(=O)N1CCC[C@H]1[C@H](OC)[C@@H](C)C(=O)N[C@@H](Cc1ccccc1)c1nccs1)OC)N(C)C(=O)[C@@H](NC(=O)C(C)(C)N)C(C)C [compound 0101, 2-methylalanyl-N-[(3R,4S,5S)-3-methoxy-1-{(2S)-2-[(1R,2R)-1-methoxy-2-methyl-3-oxo-3-{[(1S)-2-phenyl-1-(1,3-thiazol-2-yl)ethyl]amino}propyl]pyrrolidin-1-yl}-5-methyl-1-oxoheptan-4-yl]-N-methyl-L-valinamide] (H-[Aib]V[Dil][Dolaproine]-Doe)
effect on microtubule structure and cell cycle [1]: disrupted microtubule structure and led to G2/M cell cycle arrest | IC50 [2]: 0.33 ng/mL (≈ 0.444 nM) | IC50 [3]: 0.59 ng/mL (≈ 0.794 nM)

Reference: patent US9777070B2, “Anti-PTK7 antibody-drug conjugates” (Pfizer Inc., priority 2014, dated 2017)
